Laboratory results as given in ChEMBL document CHEMBL1201862, “PubChem BioAssay data set” (2004).
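Cells were grown in 96-well plates and exposed to each compound for 48 hours at five concentrations; endpoints were interpolated linearly between bracketing concentrations, or set to the highest concentration if not reached. GI50 = concentration required for 50% inhibition of growth.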 Activity calls are given as the source filed them. No stated cut-off is given here; in the data, active = GI50 up to about 1.1 µM and inactive = higher.

Assays:
Test in all cases: NCI tumour cell line growth inhibition, 48 h
DU-145 = tested on: DU-145
RPMI-8226 = tested on: RPMI-8226
MDA-N = tested on: MDA-N
NCI-H226 = tested on: NCI-H226
HCC 2998 = tested on: HCC 2998
SF-295 = tested on: SF-295
EKVX = tested on: EKVX
CAKI-1 = tested on: CAKI-1
Hs-578T = tested on: Hs-578T
IGROV-1 = tested on: IGROV-1
MCF7 = tested on: MCF7
HOP-62 = tested on: HOP-62
SN12C = tested on: SN12C
UO-31 = tested on: UO-31
NCI-H23 = tested on: NCI-H23
MOLT-4 = tested on: MOLT-4
786-0 = tested on: 786-0
SK-MEL-2 = tested on: SK-MEL-2
K562 = tested on: K562
RXF 393 = tested on: RXF 393

Compound | GI50 (DU-145) | GI50 (RPMI-8226) | GI50 (MDA-N) | GI50 (NCI-H226) | GI50 (HCC 2998) | GI50 (SF-295) | GI50 (EKVX) | GI50 (CAKI-1) | GI50 (Hs-578T) | GI50 (IGROV-1) | GI50 (MCF7) | GI50 (HOP-62) | GI50 (SN12C) | GI50 (UO-31) | GI50 (NCI-H23) | GI50 (MOLT-4) | GI50 (786-0) | GI50 (SK-MEL-2) | GI50 (K562) | GI50 (RXF 393)
CC(=O)OCCC[C@@H]1C(=C(C)C)CCC2[C@@]1(C)CC[C@@]1(C)C[C@](C)(CCC=C(C)C)CC[C@]21C (some centres undefined) | > 100 µM (inactive) | > 100 µM (inactive) | > 100 µM (inactive) | > 100 µM (inactive) | > 100 µM (inactive) | > 100 µM (inactive) | > 100 µM (inactive) | > 100 µM (inactive) | > 100 µM (inactive) | > 100 µM (inactive) | > 100 µM (inactive) | > 100 µM (inactive) | > 100 µM (inactive) | 13.5 µM (inactive) | > 100 µM (inactive) | > 100 µM (inactive) | > 100 µM (inactive) | – | – | –
CCOc1cc(C(c2c(O)c3ccccc3oc2=O)c2c(O)c3ccccc3oc2=O)ccc1OC | 19.3 µM (inactive) | 22.3 µM (inactive) | 18.1 µM (inactive) | 23.3 µM (inactive) | – | 19.4 µM (inactive) | 21.3 µM (inactive) | 16.4 µM (inactive) | 26.8 µM (inactive) | 17.7 µM (inactive) | 21 µM (inactive) | 18.2 µM (inactive) | 18.8 µM (inactive) | 22.8 µM (inactive) | 23.4 µM (inactive) | 35.9 µM (inactive) | 18.3 µM (inactive) | 20.6 µM (inactive) | 33.4 µM (inactive) | –
COC1/C=C/C(C)C(O)CC(O)/C=C/C(C)C(C(C)C(OC)C(C)CCC(=O)C(C)C(C/C=C/N(C)C=O)OC)OC(=O)/C=C/C=C(\C)CC(OC)CC2=CC(=O)O[C@@H](C(C)C(OC)C1)[C@H]2O (some centres undefined) | 0.0221 µM (active) | 0.00783 µM (active) | < 0.005 µM (active) | < 0.005 µM (active) | < 0.005 µM (active) | < 0.005 µM (active) | 0.0298 µM (active) | < 0.005 µM (active) | 0.00879 µM (active) | 0.0113 µM (active) | 0.00522 µM (active) | 0.00515 µM (active) | < 0.005 µM (active) | 0.00769 µM (active) | 0.011 µM (active) | 0.0163 µM (active) | < 0.005 µM (active) | – | – | < 0.005 µM (active)
C1=NN2C(c3ccccc3)=NOC2C2C(c3ccccc3)=NOC12 (centres undefined) | > 100 µM (inactive) | – | > 100 µM (inactive) | 96.2 µM (inactive) | > 100 µM (inactive) | > 100 µM (inactive) | > 100 µM (inactive) | > 100 µM (inactive) | > 100 µM (inactive) | > 100 µM (inactive) | > 100 µM (inactive) | > 100 µM (inactive) | – | > 100 µM (inactive) | > 100 µM (inactive) | – | > 100 µM (inactive) | – | – | > 100 µM (inactive)
FC1(F)SC2CCCCCCCCCCC2C1(F)F (centres undefined) | 31.1 µM (inactive) | 59.7 µM (inactive) | 37.6 µM (inactive) | 33.3 µM (inactive) | – | 28.6 µM (inactive) | 35.5 µM (inactive) | 59.6 µM (inactive) | 36.1 µM (inactive) | 76 µM (inactive) | 20.2 µM (inactive) | 38.6 µM (inactive) | – | 78.2 µM (inactive) | 23.8 µM (inactive) | 28.2 µM (inactive) | 56.4 µM (inactive) | 18.2 µM (inactive) | 15.3 µM (inactive) | 20.7 µM (inactive)
Nc1cc2c(nnn2C2OC(COCc3ccccc3)C(OCc3ccccc3)C2OCc2ccccc2)c(=O)[nH]1 (centres undefined) | 35.9 µM (inactive) | – | 10.2 µM (inactive) | 15.5 µM (inactive) | – | 17.7 µM (inactive) | 6.15 µM (inactive) | > 100 µM (inactive) | 97.1 µM (inactive) | 33.1 µM (inactive) | 5.48 µM (inactive) | 37.8 µM (inactive) | 9.59 µM (inactive) | 58.1 µM (inactive) | 19.5 µM (inactive) | 7.85 µM (inactive) | 19.6 µM (inactive) | 10.5 µM (inactive) | 7.41 µM (inactive) | 6.75 µM (inactive)
O=C(CCCCCCCCC(=O)N1C(=O)CC(=O)N(c2cccc(Cl)c2)C1=S)N1C(=O)CC(=O)N(c2cccc(Cl)c2)C1=S | 89.7 µM (inactive) | 27.2 µM (inactive) | 41.2 µM (inactive) | – | 94.4 µM (inactive) | 28.1 µM (inactive) | 38.3 µM (inactive) | 20.5 µM (inactive) | 19.3 µM (inactive) | – | 34.3 µM (inactive) | 43.2 µM (inactive) | 40.2 µM (inactive) | 27.5 µM (inactive) | 39.7 µM (inactive) | 20 µM (inactive) | 45.6 µM (inactive) | 37.7 µM (inactive) | – | 44.9 µM (inactive)
O=c1[nH]c(=O)n([C@@H]2O[C@H](CO)[C@@H](O)[C@@H]2F)cc1I [FIALURIDINE] | > 100 µM (inactive) | – | > 100 µM (inactive) | > 100 µM (inactive) | > 100 µM (inactive) | > 100 µM (inactive) | > 100 µM (inactive) | > 100 µM (inactive) | > 100 µM (inactive) | > 100 µM (inactive) | 67.6 µM (inactive) | > 100 µM (inactive) | > 100 µM (inactive) | > 100 µM (inactive) | > 100 µM (inactive) | 56 µM (inactive) | > 100 µM (inactive) | – | > 100 µM (inactive) | 54.1 µM (inactive)
